# Measured values published in patent publication US20220133753A1, “COMPOSITIONS AND METHODS USEFUL FOR TREATING DISEASES CHARACTERIZED BY INSUFFICIENT PANTOTHENATE KINASE ACTIVITY” (Comet Therapeutics, Inc., priority 2016, published 2022).
# Experiments:
# [1] = tested on: dPANK/fbl RNAi treated Drosophila S2 cells; assay: dPANK/fbl RNA interference in Drosophila S2 cells, rescue by CoA or 4′-phosphopantetheine; format: cell-based; conditions: compound added to the medium
# Method: Drosophila S2 Cell Culture, RNA Interference, and CoA and 4′-phosphopantetheine treatment: Drosophila Schneider's S2 cells were maintained at 25° C. in Schneider's Drosophila medium (Invitrogen) supplemented with 10% heat inactivated fetal calf serum (Gibco) and antibiotics (penicillin/streptomycin, Invitrogen) under laboratory conditions. Synthesis of RNAi constructs and RNA interference (dsRNA) treatment was carried out as described previously (Siudeja K et al, EMBO Mol Med 3, 755-766 (2011)). Non-relevant (human gene; hMAZ) dsRNA was used as control. The cells were incubated for 4 days to induce an efficient knock-down. Cells were then subcultured, with or without CoA (Sigma-Aldrich, Cat. No: C4780—which is used for all the experiments wherever stated below) or 4′-phosphopantetheine (PPanSH) at different concentrations and were maintained for additional 3 days until analysis for rescue efficiency of the compounds was performed. The stock solutions of compounds were made in sterile water and stored in −20° C. until use.
# Drosophila S2 Cell Immunofluorescence Staining: For immunofluorescence Drosophila S2 cells were seeded on Poly-L-Lysine coated (Sigma-Aldrich) glass microscope slides and allowed to settle for 45 min. Cells were fixed with 3.7% formaldehyde (Sigma Aldrich) for 20 min, washed briefly with PBS+0.1% Triton-X-100 (Sigma Aldrich) and permeabilized with PBS+0.2% Triton-X-100 for 20 min. The slides were incubated in primary antibody (rabbit anti-AcLys, Cell Signaling Cat No: 9441, 1:500) to visualize histone acetylation levels in PBS+0.1% Triton-X-100 overnight and after an additional washing step in PBS+0.1% Triton-X-100 they were incubated in secondary goat anti-rabbit-Alexa488 antibody (Molecular Probes) for two hours at room temperature (RT). F-actin was detected with Rhodamin-Phalloidin (20 U/ml)(Invitrogen) and DNA by staining with DAPI (0.2 ug/ml) (Thermo Scientific). Finally the samples were mounted in 80% glycerol and analyzed using a Leica fluorescence microscope with Leica software. Adobe Photoshop and Illustrator (Adobe Systems Incorporated, San Jose, Calif., USA) were used for image assembly.
# HEK293 cells = assay: HoPan treatment of mammalian HEK293 cells in combination with CoA or 4′-phosphopantetheine; format: cell-based, human; conditions: HoPan treated HEK293 cells, compound added to the medium
# Method: HoPan treatment of mammalian HEK293 Cells in combination with CoA and 4′-phosphopantetheine treatment: HEK293 cells were maintained in dMEM (Invitrogen) supplemented with 10% fetal calf serum (Gibco) and antibiotics (penicillin/streptomycin, Invitrogen). For HoPan treatment, cells were cultured in custom made dMEM without vitamin B5 (Thermo Scientific) supplemented with dialyzed FCS (Thermo Scientific). CoA or PPanSH was added to HEK293 cells for the final concentration of 25 uM, either in the presence or absence of HoPan (0.5 mM) for 4 days, followed by analysis for phenotype and rescue efficiency of CoA and PPanSH.
# Western blot analysis and Antibodies: For Western blot analysis, cells were collected and washed with phosphate buffer saline (PBS), followed by centrifugation. The cells were lysed and sonicated in 1X Laemmli Sample Buffer and boiled for 5 min with 5% β-mercaptoethanol (Sigma). Protein content was determined using DC protein assay (BioRad). Equal amounts of protein were loaded on a 10 or 12.5% SDS-PAGE gel, transferred onto PVDF membranes and blocked with 5% milk in PBS/0.1% Tween, followed by overnight incubation with primary antibodies. The primary antibodies used were: rabbit-anti dPANK/fbl, 1:4000 Eurogentec custom made as described previously5, mouse anti-tubulin (Sigma Aldrich Cat no: T5168, 1:5000), anti-acetyl-Histone3 (Active Motif Cat no: 39139, 1:2000), anti GAPDH (Fitzgerald Cat no: 10R-G109a, 1:10000), rabbit anti COASY (Abcam Cat no: AB129012, 1:1000). Appropriate HRP-conjugated secondary antibodies (Amersham) were used and detection was performed using enhanced chemi-luminescence (Pierce cat nog: 32106) and Amersham hyperfilm (GE Healthcare). Band intensities were quantified with Image-studio software.
# [2] = liver extracts, −20° C., after a week; cited from earlier work
structure (smiles),measurement,setting,value
"CC(C)(COP(=O)(O)OP(=O)(O)OC[C@H]1O[C@@H](n2cnc3c(N)ncnc32)[C@H](O)[C@@H]1OP(=O)(O)O)[C@@H](O)C(=O)NCCC(=O)NCCS [CoA, Coenzyme A]",cell count of dPANK/fbl RNAi treated S2 cells,[1],rescued the cell count in a concentration-dependent manner
same,histone (protein) acetylation of dPANK/fbl RNAi treated S2 cells,[1]; immunofluorescence,rescued
same,rescue of HoPan-induced impaired histone acetylation,HEK293 cells,rescued
same,rescue of HoPan-induced reduction in cell count,HEK293 cells,rescued
same,intracellular CoA level,HEK293 cells; HPLC,restored the intracellular concentration of CoA
same,CoA degrades to,[2],50%
